For one assay, the target named is BACE1 (Homo sapiens, UniProt P56817). Briefly: In vitro enzymatic BACE FRET assay. It counts as biochemical. Particulars: average IC50; read-out: BACE1 Enzyme assay IC50. The essentials: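 BACE (0.2 nM) pre-incubated 1 h with serially diluted inhibitor in 0.05 M acetate pH 4.2, 10% DMSO, 100 uM genapol; 50 nM FRET peptide substrate added, 1 h incubation. Stopped with Tris to neutral pH; fluorescence read (ex 488, […]).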

The subject of assay [1] is Aβ40 in conditioned medium of cells stably expressing Amyloid Precursor Protein (APP). Description: In vitro BACE cell-based assay (HEK cell assay, Aβ40 sandwich ELISA). The settings on record: Homo sapiens, HEK293; average IC50; read-out: BACE1 cell assay IC50. In short, it runs like this: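 APP-stable cells were cultured 24 h at 37 °C, then given compound as 10-point dose-response (top 100 μM or 10 μM; 0.1% DMSO final) for 24 h. Aβ40 in conditioned medium was measured by sandwich ELISA (pAb40 capture, biotinylated 6E10 detection, Eu time-resolved fluorescence). IC50 from percent inhibition versus concentration.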
On the technique in general: In an ELISA, binding on a coated surface is turned into a signal by an enzyme label.

Another assay addresses T1, human Bace2 protein (Homo sapiens, UniProt Q9Y5Z0).
T1 construct: V5 (C); 6-His (C)
T1 sequence (Q9Y5Z0 63-518): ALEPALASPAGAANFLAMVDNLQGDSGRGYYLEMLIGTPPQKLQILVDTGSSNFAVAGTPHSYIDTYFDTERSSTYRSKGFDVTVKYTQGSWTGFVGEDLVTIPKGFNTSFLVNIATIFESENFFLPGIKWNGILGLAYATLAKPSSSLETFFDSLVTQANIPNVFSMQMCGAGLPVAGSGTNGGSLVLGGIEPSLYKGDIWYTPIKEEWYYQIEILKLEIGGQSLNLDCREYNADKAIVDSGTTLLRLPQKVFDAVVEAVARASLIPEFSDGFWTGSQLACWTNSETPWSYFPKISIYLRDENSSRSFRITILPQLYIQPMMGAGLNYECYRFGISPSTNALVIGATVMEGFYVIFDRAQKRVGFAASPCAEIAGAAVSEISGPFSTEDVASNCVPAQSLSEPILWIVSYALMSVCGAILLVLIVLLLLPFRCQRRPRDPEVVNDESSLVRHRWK
Description: In vitro enzymatic BACE2 FRET assay. Particulars: average IC50; read-out: BACE2 Enzyme assay IC50. It counts as biochemical. As to the method:
In Vitro Enzymatic BACE2 FRET (Fluorescence Resonance Energy Transfer) Assay
Enzyme Assay Data in the Table 3
The assay buffer used in this screen is 0.05 M acetate, pH 4.2, 10% DMSO final, 100 uM genapol (which is a nonionic detergent, below its Critical Micelle Concentration). The Beta Secretase2 enzyme (human Bace2 protein with C-terminal V5 and 6-His tag; 0.2 nM) is pre-incubated for one hour with inhibitors, typically in about 1 uL of DMSO according to a serial dilution, are added thereto. This assay is effectively started by the addition of FRET substrate (50 nM) and the combination is incubated for one hour. Final assay concentration of about 0.64 nM. The FRET assay is terminated with by addition of Tris buffer, which raises the pH to neutrality, and the fluorescence is determined. The FRET substrate is a peptide with commercially available fluorophore and quencher, on opposite sides of the BACE cleavage site. Proteolytic cleavage of the FRET substrate releases quenching of fluorescence (excitation 488 nm and […]).

The next assay addresses T2, Cathepsin D (Cat D) (Homo sapiens, UniProt P07339).
T2 construct: made in house; host or cells: CHO cells
Briefly: In vitro enzymatic Cathepsin D (Cat D) FRET assay. The settings on record: average IC50; first procedure; read-out: CatD IC50. In kind it is biochemical. The essentials: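 Recombinant human Cat D expressed in CHO cells, 9 nM, pre-incubated 1 h with inhibitor in 0.05 M citrate pH 3.5, 10% DMSO, 5 mM CHAPS. Reaction started with 20 nM FRET peptide substrate, run 1 h, stopped with Tris to neutral pH; fluorescence read at ex 500/em 580 nm.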

In US9096615B2, “Bridged bicyclic amino thiazine dioxide compounds as inhibitors of beta-secretase and methods of use thereof” (AMGEN INC., priority 2013, dated 2015) one finds IC50 data, which are given here for 14 compounds.

Sequence of BACE1 (P56817 46-501, species assumed): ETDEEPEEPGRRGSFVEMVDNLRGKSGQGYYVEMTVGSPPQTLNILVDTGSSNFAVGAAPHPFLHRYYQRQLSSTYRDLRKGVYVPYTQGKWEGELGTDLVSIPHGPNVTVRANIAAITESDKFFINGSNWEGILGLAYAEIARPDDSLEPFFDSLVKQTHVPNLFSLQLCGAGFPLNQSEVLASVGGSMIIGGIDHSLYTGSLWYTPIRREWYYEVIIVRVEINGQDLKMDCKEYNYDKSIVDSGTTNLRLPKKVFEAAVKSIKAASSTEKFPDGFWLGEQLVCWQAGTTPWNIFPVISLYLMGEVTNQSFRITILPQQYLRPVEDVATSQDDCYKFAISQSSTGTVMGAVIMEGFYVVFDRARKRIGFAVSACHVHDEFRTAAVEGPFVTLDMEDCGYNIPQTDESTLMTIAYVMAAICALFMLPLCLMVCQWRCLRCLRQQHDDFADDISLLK
T2 sequence (P07339 65-412, species assumed): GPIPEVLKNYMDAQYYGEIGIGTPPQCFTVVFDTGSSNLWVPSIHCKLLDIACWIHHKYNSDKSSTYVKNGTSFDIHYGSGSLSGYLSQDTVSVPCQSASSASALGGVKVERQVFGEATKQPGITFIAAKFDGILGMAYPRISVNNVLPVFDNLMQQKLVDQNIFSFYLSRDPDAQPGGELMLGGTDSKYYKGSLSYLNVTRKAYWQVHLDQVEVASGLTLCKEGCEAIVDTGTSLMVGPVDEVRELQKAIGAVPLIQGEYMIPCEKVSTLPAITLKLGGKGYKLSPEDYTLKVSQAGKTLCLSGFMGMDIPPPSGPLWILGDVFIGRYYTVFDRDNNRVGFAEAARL

As to `C#CCOc1cnc2c(Nc3ccc(F)c([C@@]4(C)N=C(N)[C@@]5(CF)CC[C@@H]4S5(=O)=O)c3)nccc2n1` [Example 46, N-(3-((1S,2R,5R)-4-amino-5-(fluoromethyl)-2-methyl-8,8-dioxido-8-thia-3-azabicyclo[3.2.1]oct-3-en-2-yl)-4-fluorophenyl)-2-(2-propyn-1-yloxy)pyrido[3,4-b]pyrazin-5-amine], the 50% inhibitory concentration (IC50) (usually the point on the concentration scale where inhibition reaches its midpoint) is 0.001 µM on BACE1, 0.005 µM in assay [1], 0.009 µM at human Bace2 protein and 1000 µM on Cathepsin D (Cat D).

Take `C[C@]1(c2cc(Nc3nccc4cc(C#N)cnc34)ccc2F)N=C(N)[C@@]2(C)CC[C@@H]1S2(=O)=O` [Example 84, 8-((3-((1S,2R,5R)-4-amino-2,5-dimethyl-8,8-dioxido-8-thia-3-azabicyclo[3.2.1]oct-3-en-2-yl)-4-fluorophenyl)amino)-1,7-naphthyridine-3-carbonitrile]: the IC50 on BACE1 is 0.002 µM; in assay [1] it was 0.003 µM; at human Bace2 protein it was 0.002 µM; on Cathepsin D (Cat D) it was above 118 µM.

As for `COc1cnc(C(=O)Nc2ccc(F)c([C@@]3(C)N=C(N)[C@@]4(CF)CC[C@@H]3S4(=O)=O)c2)c(F)c1` [Example 43, N-(3-((1S,2R,5R)-4-amino-5-(fluoromethyl)-2-methyl-8,8-dioxido-8-thia-3-azabicyclo[3.2.1]oct-3-en-2-yl)-4-fluorophenyl)-3-fluoro-5-methoxy-2-pyridinecarboxamide], the IC50 is 0.009 µM at BACE1, 0.007 µM in assay [1], 0.014 µM on human Bace2 protein and above 400 µM at Cathepsin D (Cat D).

Take `C#CC(C)(C)Oc1cnc(C(=O)Nc2ccc(F)c([C@@]3(C)N=C(N)[C@@]4(CF)CC[C@@H]3S4(=O)=O)c2)cn1` [Example 44, N-(3-((1S,2R,5R)-4-amino-5-(fluoromethyl)-2-methyl-8,8-dioxido-8-thia-3-azabicyclo[3.2.1]oct-3-en-2-yl)-4-fluorophenyl)-5-((1,1-dimethyl-2-propyn-1-yl)oxy)-2-pyrazinecarboxamide]: the IC50 at BACE1 was 0.034 µM; in assay [1] it was 0.153 µM; at human Bace2 protein, 0.283 µM; on Cathepsin D (Cat D), above 400 µM.

`CC#C[C@@H](C)Oc1cnc(C(=O)Nc2ccc(F)c([C@@]3(C)N=C(N)[C@@]4(C)CC[C@@H]3S4(=O)=O)c2)cn1` [Example 70, N-(3-((1S,2R,5R)-4-amino-2,5-dimethyl-8,8-dioxido-8-thia-3-azabicyclo[3.2.1]oct-3-en-2-yl)-4-fluorophenyl)-5-(((1R)-1-methyl-2-butyn-1-yl)oxy)-2-pyrazinecarboxamide]: the IC50 at BACE1 is 0.014 µM; in assay [1] it was 0.007 µM; on human Bace2 protein, 0.05 µM; on Cathepsin D (Cat D) it was above 400 µM.

As to `Cc1cc(Cl)cnc1C(=O)Nc1ccc(F)c([C@@]2(CF)N=C(N)[C@@]3(C)CC[C@@H]2S3(=O)=O)c1` (single isomer, unassigned) [Example 118], the IC50 on BACE1 was 0.017 µM; in assay [1], 0.062 µM; at human Bace2 protein, 0.002 µM; at Cathepsin D (Cat D), above 400 µM.

As for `C[C@]1(c2cc(Nc3ncc(F)c4cc(Cl)cnc34)ccc2F)N=C(N)[C@@]2(CF)CC[C@@H]1S2(=O)=O` [Example 54, N-(3-((1S,2R,5R)-4-amino-5-(fluoromethyl)-2-methyl-8,8-dioxido-8-thia-3-azabicyclo[3.2.1]oct-3-en-2-yl)-4-fluorophenyl)-3-chloro-5-fluoro-1,7-naphthyridin-8-amine], the IC50 at BACE1 amounted to 0.002 µM; in assay [1], 0.09 µM; on human Bace2 protein it was 0.002 µM; at Cathepsin D (Cat D), 755 µM.

Regarding `COCCOc1cnc2c(Nc3ccc(F)c([C@@]4(C)N=C(N)[C@@]5(C)CC[C@@H]4S5(=O)=O)c3)nccc2n1` [Example 145, N-(3-((1S,2R,5R)-4-amino-2,5-dimethyl-8,8-dioxido-8-thia-3-azabicyclo[3.2.1]oct-3-en-2-yl)-4-fluorophenyl)-2-(2-methoxyethoxy)pyrido[3,4-b]pyrazin-5-amine], the IC50 at BACE1 is 0.003 µM; in assay [1], 0.002 µM; on human Bace2 protein, 0.065 µM; at Cathepsin D (Cat D), 1980 µM.

On to `C[C@]1(c2cc(Nc3ncc(F)c4cc(C#N)cnc34)ccc2F)N=C(N)[C@@]2(CF)CC[C@@H]1S2(=O)=O` [Example 53, 8-((3-((1S,2R,5R)-4-amino-5-(fluoromethyl)-2-methyl-8,8-dioxido-8-thia-3-azabicyclo[3.2.1]oct-3-en-2-yl)-4-fluorophenyl)amino)-5-fluoro-1,7-naphthyridine-3-carbonitrile], for which the IC50 on BACE1 was 0.003 µM; in assay [1] it was 0.038 µM; on human Bace2 protein it was 0.002 µM; on Cathepsin D (Cat D) it was above 14.8 µM.

Take `C[C@]1(c2cc(Nc3nccc4cc(Cl)cnc34)ccc2F)N=C(N)[C@@]2(CF)CC[C@@H]1S2(=O)=O` [Example 58, N-(3-((1S,2R,5R)-4-amino-5-(fluoromethyl)-2-methyl-8,8-dioxido-8-thia-3-azabicyclo[3.2.1]oct-3-en-2-yl)-4-fluorophenyl)-3-chloro-1,7-naphthyridin-8-amine]: the IC50 at BACE1 turned out to be 0.001 µM; in assay [1], 0.046 µM; on human Bace2 protein, 0.002 µM; on Cathepsin D (Cat D) it was 342 µM.

Turning to `CC(C)(C)C#CCOc1cnc(C(=O)Nc2ccc(F)c([C@@]3(C)N=C(N)C4(CF)CCC3S4(=O)=O)c2)cn1` (stereo in doubt) [Example 38, N-(3-((1S,2R,5R)-4-Amino-5-(fluoromethyl)-2-methyl-8,8-dioxido-8-thia-3-azabicyclo[3.2.1]oct-3-en-2-yl)-4-fluorophenyl)-5-((4,4-dimethylpent-2-yn-1-yl)oxy)pyrazine-2-carboxamide], the IC50 is 0.004 µM at BACE1, 0.031 µM in assay [1], 0.011 µM at human Bace2 protein and 437 µM at Cathepsin D (Cat D).

Regarding `Cc1cc(Cl)cnc1C(=O)Nc1ccc(F)c([C@@]2(C)N=C(N)[C@]3(CF)CC[C@H]2S3(=O)=O)c1` [Example 89, N-(3-((1R,2R,5S)-4-amino-5-(fluoromethyl)-2-methyl-8,8-dioxido-8-thia-3-azabicyclo[3.2.1]oct-3-en-2-yl)-4-fluorophenyl)-5-chloro-3-methyl-2-pyridinecarboxamide], the IC50 at BACE1 came out at 0.016 µM; in assay [1] it was 0.053 µM; at human Bace2 protein, 0.006 µM; at Cathepsin D (Cat D), 1550 µM.

Regarding `CC#CCOc1cnc2c(Nc3ccc(F)c([C@@]4(C)N=C(N)[C@@]5(C)CC[C@@H]4S5(=O)=O)c3)nccc2n1` [Example 62, N-(3-((1S,2R,5R)-4-amino-2,5-dimethyl-8,8-dioxido-8-thia-3-azabicyclo[3.2.1]oct-3-en-2-yl)-4-fluorophenyl)-2-(2-butyn-1-yloxy)pyrido[3,4-b]pyrazin-5-amine], the IC50 on BACE1 was 0.001 µM; in assay [1], 0.001 µM; on human Bace2 protein it was 0.007 µM; at Cathepsin D (Cat D) it was 124 µM.

With `C[C@]12CC[C@H]([C@@](C)(c3cc(Nc4nccc5cc(C#N)cnc45)ccc3F)N=C1N)S2(=O)=O` [Example 85, 8-((3-((1R,2R,5S)-4-amino-2,5-dimethyl-8,8-dioxido-8-thia-3-azabicyclo[3.2.1]oct-3-en-2-yl)-4-fluorophenyl)amino)-1,7-naphthyridine-3-carbonitrile], the IC50 amounted to 0.013 µM at BACE1, 0.011 µM in assay [1], 0.024 µM on human Bace2 protein and 1450 µM at Cathepsin D (Cat D).
